Values quoted from earlier work as cited in US20090264421A1 (priority 2007, published 2009).

Columns and labels:
TrxR1 = molecular target: T1, TrxR1 (Homo sapiens, UniProt Q16881); details: cited from earlier work
T1 sequence (Q16881 1-499 isoform Q16881-5): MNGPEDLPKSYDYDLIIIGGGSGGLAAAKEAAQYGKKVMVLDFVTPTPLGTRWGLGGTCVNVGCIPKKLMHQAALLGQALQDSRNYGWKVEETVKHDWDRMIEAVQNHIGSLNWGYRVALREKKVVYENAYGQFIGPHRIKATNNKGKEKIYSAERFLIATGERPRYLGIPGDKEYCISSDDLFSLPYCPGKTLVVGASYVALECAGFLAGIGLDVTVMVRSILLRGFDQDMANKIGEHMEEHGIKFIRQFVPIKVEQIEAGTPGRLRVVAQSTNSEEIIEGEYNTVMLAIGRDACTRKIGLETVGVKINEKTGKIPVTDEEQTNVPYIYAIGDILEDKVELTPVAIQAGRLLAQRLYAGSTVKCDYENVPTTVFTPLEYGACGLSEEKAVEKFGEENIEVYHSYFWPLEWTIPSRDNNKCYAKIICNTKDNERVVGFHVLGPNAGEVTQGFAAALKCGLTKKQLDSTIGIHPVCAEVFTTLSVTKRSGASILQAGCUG

glutaredoxin = molecular target: T2, glutaredoxin (Homo sapiens, UniProt P35754); details: cited from earlier work
T2 sequence (P35754 1-106): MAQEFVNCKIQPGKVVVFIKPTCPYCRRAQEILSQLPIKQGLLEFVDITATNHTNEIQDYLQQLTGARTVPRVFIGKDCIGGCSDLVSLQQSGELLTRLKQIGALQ

COc1c(Cl)cc2c(c1OC)N(C)[C@@H]1N3C(=O)[C@@]4(C)SS[C@@]3(C(=O)N4C)[C@H](O)[C@]21O [sporidesmin]
TrxR1 inhibition (TrxR1): not to significantly inhibit TrxR1 | glutaredoxin inhibition (glutaredoxin): inhibitor of glutaredoxin
